Source: US11040028B2, “Penicinotam derivative, preparation method and use thereof” (OCEAN UNIVERSITY OF CHINA, priority 2017, dated 2021)

How the values were obtained:
Format in all cases: cell-based
[1] = test system: mouse macrophages (RAW264.7); experiment: Lipopolysaccharide-induced NO secretion in macrophages (Griess); conditions: Mus musculus, RAW264.7, 24 h, RAW264.7, LPS 1 μg/ml, a/b isomers given as first/second symbol, read-out: IC50 (μM), inhibition of lipopolysaccharide-induced NO secretion in macrophages
In short: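 RAW264.7 cells in DMEM with 10% FBS were treated with test compounds at several concentrations, then stimulated with LPS (1 μg/ml) for 24 hours. Nitrite in the supernatant was measured by Griess reaction at 548 nm, and percent inhibition was calculated against blank-medium controls.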

[2] = test system: human embryonic lung fibroblast IMR-90; experiment: Anti-fibrosis activity test: inhibition of proliferation of human embryonic lung fibroblast IMR-90 (CCK-8)
In short: (§1)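 Exponentially growing cells, 2×10^4 cells/mL, attached 24 h. Dosed 48 h across concentrations (n=3). CCK-8 2 h → A450; IR vs blank; IC50.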

[3] = test system: human fibrosarcoma cells HT-1080; experiment: Anti-fibrosis activity test: inhibition of proliferation of human fibrosarcoma cells HT-1080 (CCK-8); conditions: Homo sapiens, HT-1080, 48 h
In short: as §1

[4] = test system: human dermal fibroblasts CCC-ESF-1; experiment: Anti-fibrosis activity test: inhibition of proliferation of human dermal fibroblasts CCC-ESF-1 (CCK-8); conditions: Fibroblast
In short: as §1

[5] = test system: cardiac fibroblast RAT-iCell-C002; experiment: Anti-fibrosis activity test: inhibition of proliferation of cardiac fibroblast RAT-iCell-C002 (CCK-8); conditions: Cardiac fibroblast, 48 h
In short: as §1

[6] = test system: human hepatic stellate cells LX-2; experiment: Anti-fibrosis activity test: inhibition of proliferation of human hepatic stellate cells LX-2 (CCK-8); conditions: Homo sapiens, 48 h
In short: as §1

[7] = test system: human lung fibroblasts HFL1; experiment: Anti-fibrosis activity test: inhibition of proliferation of human lung fibroblasts HFL1 (CCK-8); conditions: Homo sapiens, HFL1, 48 h
In short: as §1

BHK-21 cells = experiment: Anti-fibrosis activity test: inhibition of BHK-21 cell proliferation (CCK-8); conditions: Mesocricetus auratus, BHK-21, 48 h
In short: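 Each concentration was tested in triplicate on adhered BHK-21 cells for 48 h, with pirfenidone as reference. A 2 h CCK-8 incubation preceded absorbance reading at 450 nm, and IC50 was obtained from percent inhibition versus blank.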

[8] = human embryonic lung fibroblast IMR-90, CCK-8, 48 hours
[9] = human fibrosarcoma cells HT-1080, CCK-8, 48 hours
[10] = human dermal fibroblasts CCC-ESF-1, CCK-8, 48 hours
[11] = cardiac fibroblast RAT-iCell-C002, CCK-8, 48 hours
[12] = human hepatic stellate cells LX-2, CCK-8, 48 hours
[13] = human lung fibroblasts HFL1, CCK-8, 48 hours
[14] = CCK-8, 48 hours after administration
[15] = Homo sapiens, IMR-90 cells, 48 h, CCK-8
[16] = Homo sapiens, CCC-ESF-1 cells, 48 h, CCK-8

Row | SMILES | IC50 [1] [µM] | IC50 [2, 8] [mM] | IC50 [3, 9] [mM] | IC50 [4, 10] [mM] | IC50 [5, 11] [mM] | IC50 [6, 12] [mM] | IC50 [7, 13] [mM] | IC50 (BHK-21 cells; [14]) [mM] | IC50 [2, 15] [mM] | IC50 ([3]; HT-1080 cells, 48 h, CCK-8) [mM] | IC50 [4, 16] [mM] | IC50 ([5]; RAT-iCell-C002 cells, CCK-8) [mM] | IC50 ([6]; LX-2, 48 h, LX-2 cells, CCK-8) [mM] | IC50 ([7]; HFL1 cells, 48 h, CCK-8) [mM] | IC50 (BHK-21 cells; 48 h, CCK-8) [mM]
1 | O=C1c2c(nc3cccc(C(F)(F)F)c3c2OCc2ccccc2Cl)-c2cccn21 [Compound 472b, 9-((2-chlorobenzyl)oxy)-8-(trifluoromethyl)-10H-pyrrolizino[1,2-b]quinolin-10-one] | 1 to 10 | 0.05 to 5 | 0.05 to 5 | 0.05 to 5 | 0.05 to 5 | 0.05 to 5 | 0.05 to 5 | 0.05 to 5 |  |  |  |  |  |  | 
2 | C=CCOc1c2c(nc3cc(N4CCNCC4)c(F)cc13)-c1cccn1C2=O [Compound 349b, 9-(allyloxy)-7-fluoro-6-(piperazin-1-yl)-10H-pyrrolizino[1,2-b]quinolin-10-one] | 1 to 10 | 0.05 to 5 | 0.05 to 5 | 0.05 to 5 | 0.05 to 5 | 0.05 to 5 | 0.05 to 5 | 0.05 to 5 |  |  |  |  |  |  | 
3 | O=C1c2cc(F)ccc2N(c2ccc(Cl)cc2)C2c3cccn3C(=O)C12 (stereo not shown) [Compound 133a, 4-(4-Chlorophenyl)-7-fluoro-3b,9a-dihydro-9H-pyrrolizino[1,2-b]quinoline-9,10(4H)-dione] | 10 to 50 | 5 to 20 | 0.05 to 5 | 0.05 to 5 | 0.05 to 5 | 0.05 to 5 | 0.05 to 5 | 0.05 to 5 |  |  |  |  |  |  | 
4 | N#Cc1ccc2nc3c(c(Oc4ccc(F)cc4)c2c1)C(=O)n1cccc1-3 [Compound 199b, 9-(4-fluorophenoxy)-10-oxo-10H-pyrrolizino[1,2-b]quinoline-7-carbonitrile] | 1 to 10 | 0.05 to 5 | 0.05 to 5 | 0.05 to 5 | 0.05 to 5 | 0.05 to 5 | 0.05 to 5 | 0.05 to 5 |  |  |  |  |  |  | 
5 | O=C1c2c(nc3cc(Cl)ccc3c2O)-c2cccn21 [Compound 500b, 6-chloro-9-hydroxy-10H-pyrrolizino[1,2-b]quinolin-10-one] | 1 to 10 | 0.05 to 5 | 0.05 to 5 | 0.05 to 5 | 0.05 to 5 | 0.05 to 5 | 0.05 to 5 | 0.05 to 5 |  |  |  |  |  |  | 
6 | O=C1c2c(n(Cc3cccc(Cl)c3)c3cc(F)ccc3c2=O)-c2cccn21 [Compound 497a, 4-(3-Chlorobenzyl)-6-fluoro-9H-pyrrolizino[1,2-b]quinoline-9,10(4H)-dione] | 0.1 to 1 | 0.05 to 5 | 0.05 to 5 | 0.05 to 5 | < 0.05 | 0.05 to 5 | 0.05 to 5 | 0.05 to 5 |  |  |  |  |  |  | 
7 | CCOc1c2c(nc3ccc(F)cc13)-c1cccn1C2=O [Compound 104b, 9-ethoxy-7-fluoro-10H-pyrrolizino[1,2-b]quinolin-10-one] | 1 to 10 | 0.05 to 5 | 0.05 to 5 | 0.05 to 5 | 0.05 to 5 | 0.05 to 5 | 0.05 to 5 | 0.05 to 5 |  |  |  |  |  |  | 
8 | Cc1ccc(C)c2c(O)c3c(nc12)C(=O)n1cccc1-3 [Compound 783b, 11-hydroxy-7,10-dimethyl-5H-pyrrolizino[2,1-b]quinolin-5-one] | 1 to 10 |  |  |  |  |  |  |  | 0.05 to 5 | 0.05 to 5 | 0.05 to 5 | 0.05 to 5 | 0.05 to 5 | 0.05 to 5 | 0.05 to 5
9 | CCOCCCn1c2c(c(=O)c3ccccc31)-c1cccn1C2=O [Compound 791a, 6-(3-Ethoxypropyl)-5H-pyrrolizino[2,1-b]quinoline-5,11(6H)-dione] | 1 to 10 |  |  |  |  |  |  |  | 0.05 to 5 | 0.05 to 5 | 0.05 to 5 | 0.05 to 5 | 0.05 to 5 | 0.05 to 5 | < 0.05
10 | O=C1c2c(nc3cc(Cl)ccc3c2OCc2ccc(Cl)cc2)-c2cccn21 [Compound 508b, 6-chloro-9-((4-chlorobenzyl)oxy)-10H-pyrrolizino[1,2-b]quinolin-10-one] | 1 to 10 | 0.05 to 5 | < 0.05 | 0.05 to 5 | 0.05 to 5 | 0.05 to 5 | 0.05 to 5 | 0.05 to 5 |  |  |  |  |  |  | 
11 | O=C1c2c([nH]c3cc(Cl)ccc3c2=O)-c2cccn21 [Compound 500a, 6-Chloro-9H-pyrrolizino[1,2-b]quinoline-9,10(4H)-dione] | 0.1 to 1 | 0.05 to 5 | 0.05 to 5 | 0.05 to 5 | 0.05 to 5 | < 0.05 | 0.05 to 5 | 0.05 to 5 |  |  |  |  |  |  | 
12 | O=C1c2c(n(Cc3ccccc3F)c3c(Cl)cccc3c2=O)-c2cccn21 [Compound 460a, 5-Chloro-4-(2-fluorobenzyl)-9H-pyrrolizino[1,2-b]quinoline-9,10(4H)-dione] | 0.1 to 1 | 0.05 to 5 | 0.05 to 5 | 0.05 to 5 | 0.05 to 5 | 0.05 to 5 | < 0.05 | < 0.05 |  |  |  |  |  |  | 
13 | Cc1cc2[nH]c3c(c(=O)c2cc1C)-c1cccn1C3=O [Compound 781a, 8,9-Dimethyl-5H-pyrrolizino[2,1-b]quinoline-5,11(6H)-dione] | 10 to 50 |  |  |  |  |  |  |  | 0.05 to 5 | 0.05 to 5 | 0.05 to 5 | 0.05 to 5 | 0.05 to 5 | 0.05 to 5 | 0.05 to 5
14 | O=C1c2c(nc3ccc(C(F)(F)F)cc3c2Oc2ccc(Cl)cc2)-c2cccn21 [Compound 276b, 9-(4-chlorophenoxy)-7-(trifluoromethyl)-10H-pyrrolizino[1,2-b]quinolin-10-one] | 1 to 10 | 0.05 to 5 | 0.05 to 5 | 0.05 to 5 | 0.05 to 5 | 0.05 to 5 | 0.05 to 5 | 0.05 to 5 |  |  |  |  |  |  | 
15 | N#Cc1cccc2c1c(=O)c1c(n2Cc2cccc(F)c2)-c2cccn2C1=O [Compound 463a, 4-(3-Fluorobenzyl)-9,10-dioxo-4,10-dihydro-9H-pyrrolizino[1,2-b]quinoline-8-carbonitrile] | 1 to 10 | 0.05 to 5 | 5 to 20 | 0.05 to 5 | 0.05 to 5 | 0.05 to 5 | 0.05 to 5 | 0.05 to 5 |  |  |  |  |  |  | 
16 | O=C1c2c(n(Cc3cccc(Cl)c3)c3cccc(C(F)(F)F)c3c2=O)-c2cccn21 [Compound 466a, 4-(3-Chlorobenzyl)-8-(trifluoromethyl)-9H-pyrrolizino[1,2-b]quinoline-9,10(4H)-dione] | 1 to 10 | 0.05 to 5 | 0.05 to 5 | 0.05 to 5 | 0.05 to 5 | < 0.05 | 0.05 to 5 | 0.05 to 5 |  |  |  |  |  |  | 
17 | O=C1c2c(c(=O)c3ccccc3n2CCN2CCCCC2)-c2cccn21 [Compound 784a, 6-(2-(Piperidin-1-yl)ethyl)-5H-pyrrolizino[2,1-b]quinoline-5,11(6H)-dione] | 10 to 50 |  |  |  |  |  |  |  | 0.05 to 5 | 0.05 to 5 | 0.05 to 5 | 0.05 to 5 | 0.05 to 5 | 0.05 to 5 | < 0.05
18 | O=C1c2c(nc3cccc(C(F)(F)F)c3c2OCc2cccc(Cl)c2)-c2cccn21 [Compound 466b, 9-((3-chlorobenzyl)oxy)-8-(trifluoromethyl)-10H-pyrrolizino[1,2-b]quinolin-10-one] | 1 to 10 | 0.05 to 5 | 0.05 to 5 | 0.05 to 5 | 0.05 to 5 | 0.05 to 5 | 0.05 to 5 | 0.05 to 5 |  |  |  |  |  |  | 
19 | N#Cc1cccc2c(OCc3ccccc3F)c3c(nc12)-c1cccn1C3=O [Compound 456b, 9-((2-fluorobenzyl)oxy)-10-oxo-10H-pyrrolizino[1,2-b]quinoline-5-carbonitrile] | 1 to 10 | 0.05 to 5 | 0.05 to 5 | 0.05 to 5 | 0.05 to 5 | 0.05 to 5 | 0.05 to 5 | 0.05 to 5 |  |  |  |  |  |  | 
20 | COc1c2c(nc3cc(N4CCNCC4)c(F)cc13)-c1cccn1C2=O [Compound 361b, 7-fluoro-9-methoxy-6-(piperazin-1-yl)-10H-pyrrolizino[1,2-b]quinolin-10-one] | 1 to 10 | 0.05 to 5 | 0.05 to 5 | 0.05 to 5 | 0.05 to 5 | 5 to 20 | 0.05 to 5 | 0.05 to 5 |  |  |  |  |  |  | 
